From patent US20260085073A1, “PYRAZOLYLCARBOXAMIDE COMPOUNDS AND THEIR USE IN THERAPY” (Hotspot Therapeutics, Inc., priority 2022, published 2026) come the findings set out here.

This experiment has as its target T1, MALT1 (Homo sapiens, UniProt Q9UDY8).
T1 construct: Avi-tagged FL MALT-1 (Pharmaron, stored at −70° C.); Avi-tag
T1 sequence (Q9UDY8 1-824): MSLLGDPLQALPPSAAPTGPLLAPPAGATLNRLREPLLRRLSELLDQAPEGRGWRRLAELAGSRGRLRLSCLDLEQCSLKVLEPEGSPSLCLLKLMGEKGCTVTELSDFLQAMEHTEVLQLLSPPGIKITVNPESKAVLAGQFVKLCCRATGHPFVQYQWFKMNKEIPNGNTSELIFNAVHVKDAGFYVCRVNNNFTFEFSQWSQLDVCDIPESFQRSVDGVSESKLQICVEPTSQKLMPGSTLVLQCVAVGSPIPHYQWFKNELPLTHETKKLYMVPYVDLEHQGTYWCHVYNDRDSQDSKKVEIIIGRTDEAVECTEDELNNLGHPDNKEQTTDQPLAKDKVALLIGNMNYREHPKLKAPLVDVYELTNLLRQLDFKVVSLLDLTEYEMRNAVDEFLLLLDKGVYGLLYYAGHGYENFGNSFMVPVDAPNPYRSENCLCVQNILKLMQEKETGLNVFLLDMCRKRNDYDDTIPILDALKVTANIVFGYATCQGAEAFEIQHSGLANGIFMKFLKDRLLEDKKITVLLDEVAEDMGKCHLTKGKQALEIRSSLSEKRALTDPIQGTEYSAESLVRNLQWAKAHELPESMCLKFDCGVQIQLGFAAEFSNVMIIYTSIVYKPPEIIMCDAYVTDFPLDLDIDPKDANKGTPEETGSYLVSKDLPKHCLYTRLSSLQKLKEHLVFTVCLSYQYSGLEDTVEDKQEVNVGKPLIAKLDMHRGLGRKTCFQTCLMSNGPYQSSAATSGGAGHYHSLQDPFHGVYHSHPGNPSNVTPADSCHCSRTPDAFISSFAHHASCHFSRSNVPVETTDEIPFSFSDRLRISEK
As to the kind of experiment: MALT1 inhibition assay (MALT-1 Fluorogenic Peptide Cleavage Assay, Ac-LRSR-AMC substrate). It counts as biochemical. Conditions: Avi-tagged FL MALT-1, 30 min pre-incubation, 90 min reaction at room temperature, fluorescence intensity. Summed up:
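Full-length Avi-tagged MALT1 pre-incubated 30 min at room temperature with compounds (2% DMSO final) in HEPES pH 6.89, sodium citrate, TCEP, EDTA, CHAPS buffer. Ac-LRSR-AMC added from 50 µM (Km) or […] working stocks; 90 min at room temperature, AMC fluorescence (ex 342/em 441 nm); IC50 from % inhibition curves.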
On to `Cn1nc(-c2nccc3ccoc23)c(C(F)(F)F)c1C(=O)Nc1ccnc(C(F)(F)F)c1` [Compound I-106], for which the concentration for half-maximal inhibition (IC50) (commonly the concentration that gives 50% inhibition) was less than 500 nM.
`Cn1nc(-c2nccc3ncsc23)c(C(F)(F)F)c1C(=O)Nc1ccnc(C(F)(F)F)c1` [Compound I-107] registered an IC50 of more than 10000 nM.
`COCCn1cc(-c2nn(C)c(C(=O)Nc3ccnc(C(F)(F)F)c3)c2C(F)(F)F)c2ccncc21` [Compound I-108]: the concentration for half-maximal inhibition (IC50) was more than 10000 nM.
For `Cn1nc(-c2cccc3nnsc23)c(C(F)(F)F)c1C(=O)Nc1ccnc(C(F)(F)F)c1` [Compound I-109], the IC50 is more than 10000 nM.
`Cn1nc(-c2ccnc3c(F)cccc23)c(C(F)(F)F)c1C(=O)Nc1ccnc(C(F)(F)F)c1` [Compound I-110] came in with a half-maximal inhibitory concentration (IC50) of 500 to 2500 nM.
For the molecule `Cn1nc(-c2nccn3ccnc23)c(C(F)(F)F)c1C(=O)Nc1ccnc(C(F)(F)F)c1` [Compound I-111], the IC50 is 500 to 2500 nM.
`Cn1nc(-c2cn(C)c3c(=O)[nH]ccc23)c(C(F)(F)F)c1C(=O)Nc1ccnc(C(F)(F)F)c1` [Compound I-112]: the IC50 fell in the range of 2500 to 10000 nM.
`Cn1nc(-c2csc3c(=O)[nH]ccc23)c(C(F)(F)F)c1C(=O)Nc1ccnc(C(F)(F)F)c1` [Compound I-113] returned a half-inhibitory concentration (IC50) of 500 to 2500 nM.
For `Cn1nc(-c2cncc3ccn(C)c23)c(C(F)(F)F)c1C(=O)Nc1ccnc(C(F)(F)F)c1` [Compound I-114] the value was 500 to 2500 nM.
As to `Cn1nc(-c2cncc3cc[nH]c23)c(C(F)(F)F)c1C(=O)Nc1ccnc(C(F)(F)F)c1` [Compound I-115], the IC50 fell in the range of 2500 to 10000 nM.
Regarding `Cn1nc(-c2cccc3c(=O)[nH]ncc23)c(C(F)(F)F)c1C(=O)Nc1ccnc(C(F)(F)F)c1` [Compound I-116], the IC50 was in the range of 500 to 2500 nM.
For the molecule `Cn1nc(-c2cccc3nc(N)sc23)c(C(F)(F)F)c1C(=O)Nc1ccnc(C(F)(F)F)c1` [Compound I-117], the half-maximal inhibitory concentration (IC50) fell in the range of 500 to 2500 nM.
Consider `Cn1nc(-c2cccc3nncn23)c(C(F)(F)F)c1C(=O)Nc1ccnc(C(F)(F)F)c1` [Compound I-118], for which the IC50 lay within 2500 to 10000 nM.
As to `Cn1nc(-c2cncc3nccn23)c(C(F)(F)F)c1C(=O)Nc1ccnc(C(F)(F)F)c1` [Compound I-119], the IC50 lay within 2500 to 10000 nM.
Take `Cn1nc(-c2csc3cnccc23)c(C(F)(F)F)c1C(=O)Nc1cnc(-n2nccn2)c(C(F)(F)F)c1` [Compound I-120, N-(6-(2H-1,2,3-triazol-2-yl)-5-(trifluoromethyl)pyridin-3-yl)-1-methyl-3-(thieno[2,3-c]pyridin-3-yl)-4-(trifluoromethyl)-1H-pyrazole-5-carboxamide]: the IC50 was less than 500 nM.
Consider `Cn1nc(-c2cccc3ncccc23)c(C(F)(F)F)c1C(=O)Nc1cnc(-n2nccn2)c(C(F)F)c1` [Compound I-121], for which the IC50 was less than 500 nM.
For `Cn1nc(-c2cccc3ncccc23)c(C(F)(F)F)c1C(=O)Nc1cnc(-n2nccn2)c(C(F)(F)F)c1` [Compound I-122] the value was less than 500 nM.
`Cn1nc(-c2cccc3ncn(C4CC4)c23)cc1C(=O)Nc1ccnc(C(F)(F)F)c1` [Compound I-123]: the IC50 is more than 10000 nM.
Consider `Cn1nc(-c2c[nH]c3cnccc23)c(C(F)(F)F)c1C(=O)Nc1ccnc(C(F)(F)F)c1` [Compound I-124], for which the IC50 lay in the range of 500 to 2500 nM.
In turn, `Cn1nc(-c2cccc3ncsc23)c(C(F)(F)F)c1C(=O)Nc1cnc(-n2nccn2)c(C(F)(F)F)c1` [Compound I-125] had an IC50 of less than 500 nM.
Turning to `Cn1nc(-c2cccc3ncsc23)c(C(F)(F)F)c1C(=O)Nc1cnc(-n2nccn2)c(Cl)c1` [Compound I-126], the IC50 is less than 500 nM.
Consider `Cn1nc(-c2cccc3ccoc23)c(C(F)(F)F)c1C(=O)Nc1cnc(-n2nccn2)c(C(F)(F)F)c1` [Compound I-127], for which the IC50 was less than 500 nM.
Turning to `Cn1nc(-c2cccc3ccoc23)c(C(F)(F)F)c1C(=O)Nc1cnc(-n2nccn2)c(C(F)F)c1` [Compound I-128], the IC50 was less than 500 nM.
On to `Cn1nc(-c2cccc3ccoc23)c(C(F)(F)F)c1C(=O)Nc1cnc(-n2nccn2)c(Cl)c1` [Compound I-129], for which the half-inhibitory concentration (IC50) is less than 500 nM.
In turn, `Cn1nc(OCc2ccccc2)c(C(F)(F)F)c1C(=O)Nc1ccnc(C(F)(F)F)c1` [Compound I-130] had a half-maximal inhibitory concentration (IC50) of 500 to 2500 nM.
Molecule `Cn1nc(-c2cccc3c(=O)[nH]ccc23)c(C(F)(F)F)c1C(=O)Nc1cnc(-n2nccn2)c(C(F)F)c1` [Compound I-131] yielded an IC50 of less than 500 nM.
`Cn1nc(-c2cccc3c(=O)[nH]ccc23)c(C(F)(F)F)c1C(=O)Nc1cnc(-n2nccn2)c(C(F)(F)F)c1` [Compound I-132] registered a 50% inhibitory concentration (IC50) of less than 500 nM.
`Cn1nc(-c2cccc3c(=O)[nH]ccc23)c(C(F)(F)F)c1C(=O)Nc1cnc(-n2nccn2)c(Cl)c1` [Compound I-133] yielded a concentration for half-maximal inhibition (IC50) of less than 500 nM.
With `Cn1nc(-c2ccccc2)c(C(F)(F)F)c1C(=O)Nc1ccnc(C2CC2)c1` [Compound I-134], the IC50 was 2500 to 10000 nM.
`Cc1cc(NC(=O)c2c(C(F)(F)F)c(-c3ccccc3)nn2C)cnc1-n1nccn1` [Compound I-135] returned an IC50 of 500 to 2500 nM.
For `Cc1cc(NC(=O)c2c(C(F)(F)F)c(-c3ccccc3)nn2C)cnc1-n1ccnn1` [Compound I-136] the value was 2500 to 10000 nM.
The result for `Cn1nc(-c2ccccc2)c(C(F)(F)F)c1C(=O)Nc1cc(C2CC2)ccn1` [Compound I-137] reads more than 10000 nM.
Molecule `Cn1nc(-c2ccccc2)c(C(F)(F)F)c1C(=O)Nc1cc(C(F)(F)F)ccn1` [Compound I-138] came in with an IC50 of 500 to 2500 nM.
Molecule `Cn1nc(-c2cccc3cnccc23)c(C(F)(F)F)c1C(=O)Nc1cnc(-n2nccn2)c(Cl)c1` [Compound I-140, N-(5-chloro-6-(2H-1,2,3-triazol-2-yl)pyridin-3-yl)-3-(isoquinolin-5-yl)-1-methyl-4-(trifluoromethyl)-1H-pyrazole-5-carboxamide] gave a concentration for half-maximal inhibition (IC50) of less than 500 nM.
As to `COc1ncc(NC(=O)c2c(C(F)(F)F)c(-c3cccc4ncccc34)nn2C)cc1C#N` [Compound I-141], the IC50 lay in the range of 2500 to 10000 nM.
Turning to `Cn1nc(C(=O)Nc2cnc(-n3nccn3)c(Cl)c2)c(C(F)(F)F)c1-c1cccc2c1OCO2` [Compound I-142], the IC50 was less than 500 nM.
In turn, `Cn1nc(Cc2ccccc2)c(C(F)(F)F)c1C(=O)Nc1cnc(-n2nccn2)c(Cl)c1` [Compound I-143] displayed a concentration for half-maximal inhibition (IC50) of 500 to 2500 nM.
For `Cn1nc(-c2cccc3c2OCO3)c(C(F)(F)F)c1C(=O)Nc1cnc(-n2nccn2)c(Cl)c1` [Compound I-144] the value was less than 500 nM.
Regarding `Cn1nc(-c2cccc3occc23)c(C(F)(F)F)c1C(=O)Nc1cnc(-n2nccn2)c(Cl)c1` [Compound I-145], the half-maximal inhibitory concentration (IC50) is less than 500 nM.
`Cn1nc(-c2cccc3occc23)c(C(F)(F)F)c1C(=O)Nc1cnc(-n2nccn2)c(C(F)(F)F)c1` [Compound I-146] registered an IC50 of less than 500 nM.
For `Cn1nc(-c2ccccc2)c(C(F)(F)F)c1C(=O)Nc1ccnc(C(F)(F)F)c1` [Compound I-147, 1-methyl-3-phenyl-4-(trifluoromethyl)-N-(2-(trifluoromethyl)pyridin-4-yl)-1H-pyrazole-5-carboxamide] the value was less than 500 nM; for `Cn1nc(C(=O)Nc2cnc(-n3nccn3)c(Cl)c2)c(C(F)(F)F)c1-c1ccccc1` [Compound I-148], less than 500 nM.
For `Cn1nc(C(=O)Nc2ccc(C(=O)N3CC(O)C3)c(Cl)c2)c(C(F)(F)F)c1-c1ccccc1` [Compound I-149] the value was more than 10000 nM; for `Cn1nc(-c2ccccc2)c(C(F)(F)F)c1C(=O)Nc1ccc(C(=O)N2CC(O)C2)c(Cl)c1` [Compound I-150], 2500 to 10000 nM.
